Measured values published in ChEMBL document CHEMBL1144113, “Methanol adduct of puupehenone, a biologically active derivative from the marine sponge Hyrtios species” (J Nat Prod, 1999).
Converted amounts (≈) assume the structure as drawn.

What was measured:
Staphylococcus aureus = experiment: Antibacterial activity against Staphylococcus aureus at 1 ug/disk after 24 hrs by paper disk method; format: functional; conditions: read-out: IZ
KB = experiment: Cytotoxicity against human KB cells by neutral red assay; format: functional, cell-based
Plasmodium falciparum [1] = experiment: Antimalarial activity against chloroquine-resistant Plasmodium falciparum FcB1 in human erythrocytes after 48 hrs by [G-3H]hypoxanthine uptake; format: functional, organism-based; conditions: FcB1, 48 h
Plasmodium falciparum [2] = experiment: Antimalarial activity against chloroquine-sensitive Plasmodium falciparum F32 in human erythrocytes after 48 hrs by [G-3H]hypoxanthine uptake; format: functional, organism-based; conditions: F32, 48 h
Candida tropicalis = experiment: Antifungal activity against Candida tropicalis at 50 ug/disk after 48 hrs by paper disk method; format: functional; conditions: read-out: IZ
Plasmodium falciparum [3] = experiment: Antimalarial activity against chloroquine-resistant Plasmodium falciparum PFB in human erythrocytes after 48 hrs by [G-3H]hypoxanthine uptake; format: functional, organism-based
[4] = Toxicity against Artemia salina; format: organism-based; conditions: in vivo

| Compound | zone of inhibition at 1 µg/disc (Staphylococcus aureus) | IC50 (KB) | IC50 (Plasmodium falciparum [1]) | IC50 (Plasmodium falciparum [2]) | zone of inhibition at 50 µg/disc (Candida tropicalis) | IC50 (Plasmodium falciparum [3]) | LC50 [4] |
| --- | --- | --- | --- | --- | --- | --- | --- |
| CO[C@@H]1c2cc(O)c(O)cc2O[C@@]2(C)CC[C@H]3C(C)(C)CCC[C@]3(C)[C@@H]12 | 7 mm | 6 µg/mL (≈ 16.6 µM) | 1.4 µg/mL (≈ 3.88 µM) | 0.4 µg/mL (≈ 1.11 µM) | 9 mm | 1.2 µg/mL (≈ 3.33 µM) |  |
| CO[C@@H]1c2cc(OC(C)=O)c(OC(C)=O)cc2O[C@@]2(C)CC[C@H]3C(C)(C)CCC[C@]3(C)[C@@H]12 |  |  | 1.4 µg/mL (≈ 3.15 µM) | 0.6 µg/mL (≈ 1.35 µM) |  | 1.2 µg/mL (≈ 2.7 µM) |  |
| CC1(C)CCC[C@]2(C)[C@H]3C=C4C=C(O)C(=O)C=C4O[C@@]3(C)CC[C@@H]12 [PUUPEHENONE] |  | 0.5 µg/mL (≈ 1.52 µM) | 2.1 µg/mL (≈ 6.39 µM) | 0.6 µg/mL (≈ 1.83 µM) |  | 1.5 µg/mL (≈ 4.57 µM) | 20 µg/mL (≈ 60.9 µM) |
